“Also recorded” adds a separate entry of the source.
Experiments:
Type in all cases: cell-based, human
[1] = test system: isolated CD19+ CLL B cells; experiment: Viability of isolated CLL B cells cultured without NLC (DiOC6/PI flow cytometry); settings: rhBAFF 50 ng/ml, rhAPRIL 500 ng/ml; samples of 3 patients
Procedure: (§1) Freshly thawed CLL B cells were cultured at the concentration of 1×10^6/ml under various conditions. Determination of CLL cell viability in this study was based on the analysis of mitochondrial transmembrane potential (Δψm) using 3,3′-dehexyloxacarbocyamine iodine (DiOC6) and cell membrane permeability to PI, as described.22 For viability assays, 100 μl of the cell culture was collected at the indicated time points and transferred to polypropylene tubes containing 100 μl of 60 nmol/l DiOC6 (Molecular Probes) and 10 μg/ml PI in FACS buffer. The cells then were incubated at 37° C. for 15 minutes and analyzed within 30 minutes by flow cytometry using a FACSCalibur (Becton Dickinson). Fluorescence was recorded at 525 nm (FL-1) for DiOC6 and at 600 nm (FL-3) for PI.

[2] = test system: NF-κB2/p100 pathway in CLL B cells; experiment: Immunoblot of alternative NF-κB2 pathway activation (p100 to p52, p52 nuclear translocation) in CLL B cells; settings: concentrations that promote CLL cell survival; rhBAFF 50 ng/ml, rhAPRIL 500 ng/ml, 24 hours
Procedure: (§2) Cell lysates were prepared with RIPA buffer (10 mM Tris (pH 7.4), 150 mM NaCl, 1% Triton x 100, 1% deoxycholate, 0.1% SDS, 5 mM EDTA), containing 1 mM PMSF, 0.28 TIU/ml aprotinin, 50 μg/ml leupeptin, 1 mM benzamidine, 0.7 μg/ml pepstatin. Lysates were normalized for total protein (20 μg), subjected to SDS-PAGE (4-15% gradient gels, Bio-Rad, Hercules, Calif.) and immunoblot assay. We incubated the blots with secondary antibodies that were conjugated with horseradish peroxidase. Blots then were prepared for enhanced chemiluminescence (ECL) detection system (Amersham, Little Chalfont, Buckinghamshire, UK) and subsequent autoradiography with Super RX film (Fuji, Tokyo, Japan). The mouse mAb against APRIL (APRIL8) was from Alexis Biochemicals. The mouse mAb against inhibitor of kappa B-α (IκκBα was from Imgenex (San Diego, Calif.). The antibodies against anti-phosho-MAP kinase Erk1/2 and anti-MAP kinase Erk1/2-CT were purchased from Upstate Biotechnology. Antibodies against AKT or phospho-AKT (Ser473) were from Cell Signaling (Beverly, Mass.). Rabbit polyclonal antibodies (Mcl-1, Bcl-2, and Bax) were raised against synthetic peptides.21 Also primary antibodies included β-actin (Sigma Immunochemicals, St Louis, Mo.). Anti-p52 and anti-p65 antibodies were purchased from Upstate Biotechnology.
For fractionation experiments, cells were collected by centrifugation and washed with PBS. The cell pellet containing 5×10^6 cells was suspended in 100 μl of hypotonic buffer (50 mM Tris (pH7.4), 5 mM EDTA, 10 mM NaCl, 0.05% NP-40, 1 mM PMSF, 10 μg/ml Aprotinin, 10 μg/ml Leupeptin, 10 μg/ml Pepstatin, 10 mM β-Glycerophosphate, 1 mM Na-Vanadate, 1 mM NaF). After 10 minutes the lysate was spun and the supernatant was collected as cytoplasmic lysates. The pellet was washed 5 times in hypotonic buffer containing 0.1% NP-40. The remaining pellet was suspended in 100 μl RIPA buffer containing protease and phosphatase inhibitors. […]

[3] = test system: canonical NF-κB1 pathway in CLL B cells; experiment: Immunoblot of canonical NF-κB1 pathway activation (IκBα degradation/phosphorylation, p65 nuclear translocation) in CLL B cells; settings: concentrations that promote CLL cell survival; rhBAFF 50 ng/ml, rhAPRIL 500 ng/ml
Procedure: as §2
For fractionation experiments, cells were collected by centrifugation and washed with PBS. The cell pellet containing 5×10^6 cells was suspended in 100 μl of hypotonic buffer (50 mM Tris (pH7.4), 5 mM EDTA, 10 mM NaCl, 0.05% NP-40, 1 mM PMSF, 10 μg/ml Aprotinin, 10 μg/ml Leupeptin, 10 μg/ml Pepstatin, 10 mM β-Glycerophosphate, 1 mM Na-Vanadate, 1 mM NaF). After 10 minutes the lysate was spun and the supernatant was collected as cytoplasmic lysates. The pellet was washed 5 times in hypotonic buffer containing 0.1% NP-40. The remaining pellet was suspended in 100 μl RIPA buffer containing protease and phosphatase inhibitors. After an appropriate amount of 3× sample buffer (200 mM Tris (pH 6.8), 30 mM EDTA, 30% Glycerol, 6% SDS) was added, the sample was boiled for 10 minutes, spun for 10 minutes and the supernatant was recovered as nucleus lysates. Anti-NF kappa B p52 and p65 were purchased from Upstate Biotechnology. Anti-SP-1 was purchased from Santa Cruz Biotechnology (Santa Cruz, Calif.).
Cell lysates were prepared with radioimmunoprecipitation assay (RIPA) buffer (10 mM Tris [pH 7.4], 150 mM NaCl, 1% Triton X-100, 0.1% deoxycholate, 0.1% SDS, 5 mM EDTA), containing 1× complete protease inhibitor cocktail (Roche diagnostics), 1 mM sodium fluoride (NaF), and 1 mM sodium vanadate (Na3VO4). Lysates were normalized for total protein (25 μg) and subjected to SDS-PAGE (4-15% gradient gels, Bio-Rad, Hercules, Calif.) and immunoblot assay. We incubated the blots with secondary antibodies that were conjugated with horseradish peroxidase. Blots then were prepared for enhanced chemiluminescence (ECL) detection system (Amersham, Little Chalfont, United Kingdom) and subsequent autoradiography with Super RX film (Fuji, Tokyo, Japan).
For fractionation experiments, cells were collected by centrifugation and washed with PBS. The cell pellet containing 5×10^6 cells was suspended in 100 μl of hypotonic buffer (50 mM Tris [pH7.4], 5 mM EDTA, 10 mM NaCl, 0.05% Nonidet P40 [NP-40]), containing 1× complete protease inhibitor cocktail, 1 mM NaF, and 1 mM Na3VO4. After 10 minutes, the lysate was spun and the supernatant was collected as cytoplasmic lysates. […]

[4] = test system: p44/42 MAPK (ERK1/2) in CLL B cells; experiment: Immunoblot of ERK1/2 phosphorylation in CLL B cells; settings: SDF-1α 200 ng/ml; for induction of phosphorylation of ERK1/2: 3 or 10 minutes, rhBAFF 50 ng/ml
Procedure: as §2

[5] = test system: AKT in CLL B cells; experiment: Immunoblot of AKT (Ser473) phosphorylation in CLL B cells; settings: SDF-1α 200 ng/ml; for induction of phosphorylation/activation of AKT (Ser473): 3 or 10 minutes, rhBAFF 50 ng/ml
Procedure: as §2

[6] = test system: Mcl-1 in CLL B cells; experiment: Immunoblot of Mcl-1 expression in CLL B cells; settings: short-term culture of isolated CLL B cells
Procedure: as §2

[7] = test system: Bcl-2, Bax, Bcl-xL in CLL B cells; experiment: Immunoblot of Bcl-2, Bax, Bcl-xL expression in CLL B cells; settings: short-term culture of isolated CLL B cells
Procedure: as §2

[8] = test system: NF-κB1 binding activity in CLL cells; experiment: Electrophoretic mobility shift assay of NF-κB DNA binding in nuclear extracts of CLL cells; settings: rhBAFF 50 ng/ml or rhAPRIL 500 ng/ml, 24 hours
Procedure: Nuclear proteins were extracted using a nuclear extraction kit (Pierce, Rockford, Ill.) in presence of 1× complete protease inhibitor cocktail (Roche diagnostics). Total protein was measured using a modified Bradford test (Bio-Rad, Hercules, Calif.). 2 μg of nuclear protein extracts were incubated on ice for 30 min with antibodies to p50 and p65 (Santa Cruz Biotechnology). Later, a radiolabeled double stranded probe that encompassed the κB1 site was added, followed by incubation at room temperature for 30 min. Samples were loaded on a 6% acrylamide gel and run at 150 volts for three and a half hours.

[9] = test system: transfected CLL cells; experiment: Viability of CLL cells transfected with SR-IκBα or control vector (Amaxa nucleofection); settings: rhBAFF 50 ng/ml or rhAPRIL 500 ng/ml for 24 hours, added four hours after transfection
Procedure: as §1, with “of 1×10^6/mL” for “of 1×10^6/ml”, “as described.” for “as described.22”, “of 80” for “of 60”, “and 2” for “and 10”
CLL cells were transfected using the Amaxa nucleofection technology (Amaxa). Cells were resuspended in solution from human B cell nucleofector kit, also available as part of Amaxa cell optimization kit, according to the manufacturer's instructions. Briefly, 100 μl of 5×10^6 cell suspension mixed with 5 μg cDNA was transferred to the provided cuvette and nucleofected with an Amaxa Nucleofector apparatus (Amaxa). Cells were transfected using the U-15 pulsing parameter and immediately transferred into wells containing 37° C. pre-warmed culture medium in 12-well plates. After transfection, cells were cultured from 4 to 48 hours before analyzing by FACS. pmaxGFP was used to gauge transfection efficiency.

[10] = 3 minutes, 4F at 50 nM or 500 nM

Row | Substance | viability of isolated CLL cells cultured without NLC versus control [1] | activation of NF-κB2 (processing of p100 to p52, translocation of p52 to the nucleus) [2] | activation of classical/canonical NF-κB pathway (IκBα degradation, p65 translocation to nucleus) [3] | induction of phosphorylation of ERK1/2 [4] | induction of phosphorylation/activation of AKT (Ser473) [5] | induction of Mcl-1 expression in CLL B cells [6] | changes in levels of Bcl-2, Bax, or Bcl-xL [7] | NF-κB consensus motif binding proteins in nuclear extracts (EMSA) [8] | viability of CLL cells transfected with SR-IκBα [9] | viability of CLL cells transfected with control expression plasmid [9] | block of SDF-1α-induced phosphorylation of ERK1/2 [4, 10] | block of SDF-1α-induced phosphorylation of AKT at Ser473 [5, 10]
1 | rhBAFF: recombinant human B cell-activating factor of the TNF family | significant greater than that of control treated CLL cells; also recorded: significantly improved the viability of CLL cells | could induce activation of NF-κB2; also recorded: could induce translocation of p52 to the nucleus | induced degradation of the inhibitor of kappa B (IκBα) and translocation of p65 to the nuclear fraction; also recorded: induced translocation of p65 to the nucleus | could not induce phosphorylation of p44/42 mitogen-activated phosphokinase (MAPK, ERK1/2) | could not induce | induced to express increased levels of Mcl-1 | did not observe significant changes | increased amounts of proteins capable of binding NF-κB consensus motifs | had no effect on CLL cells transfected with SR-IκBα | significantly enhanced the viability of the cells transfected with the control expression plasmid | – | –
2 | SDF-1α | – | did not observe activation of NF-κB2 | did not have this activity | induced phosphorylation of ERK1/2 | induced phosphorylation of AKT at Ser473 | could not induce isolated CLL B cells to express higher levels of Mcl-1 | did not observe significant changes | – | – | – | – | –
3 | 4F-benzoyl-TE14011 [reference compound] | – | – | – | – | – | – | – | – | – | – | could be blocked | could be blocked
4 | rhAPRIL: recombinant human a proliferation-inducing ligand, purchased from Alexis Biochemicals | significant greater than that of control treated CLL cells; also recorded: significantly improved the viability of CLL cells | did not observe activation of NF-κB2; also recorded: did not observe translocation of p52 to the nucleus | induced degradation of the inhibitor of kappa B (IκBα) and translocation of p65 to the nuclear fraction; also recorded: induced translocation of p65 to the nucleus | could not induce phosphorylation of p44/42 mitogen-activated phosphokinase (MAPK, ERK1/2) | could not induce | induced to express increased levels of Mcl-1 | – | increased amounts of proteins capable of binding NF-κB consensus motifs | had no effect on CLL cells transfected with SR-IκBα | significantly enhanced the viability of the cells transfected with the control expression plasmid | – | –

— patent US20090304674A1, “METHODS FOR TREATING DISEASE BY REGULATING CLL CELL SURVIVAL” (priority 2005, published 2009)
